Read-outs that look alike come from different tables or passages of the source.
Experiments:
activated human C1 = target: T1, activated human C1 (Homo sapiens, UniProt P09871); assay: Test Code 026 (C1 inhibitor); format: biochemical; settings: in vitro; twofold serial dilution assay, higher well number indicates higher activity
T1 construct: fluid-phase C2 destruction with C4 present
Experimental: (§1) Percent inhibition is calculated by comparison with simultaneous controls.
(§2) **Activity in wells, a serial dilution assay; higher well number indicate
(§3) higher activity. The serial dilutions are twofold.

[1] = tested on: late components of human complement (C3-C9); assay: Test Code 035 (C3-C9 inhibitor), lysis of EAC 142; format: biochemical; settings: in vitro; twofold serial dilution assay, higher well number indicates higher activity
Experimental: as §1, §2, §3

[2] = tested on: complement activity of guinea pig sera; assay: Guinea Pig Intraperitoneal Test (GPIP); format: in vivo; settings: Cavia porcellus, ip, 200 mg/kg i.p.
Experimental: as §1

[3] = tested on: hereditary angioneurotic edema; settings: literature reports; cited from earlier work
[4] = tested on: human serum total hemolytic complement activity; settings: in vitro and in vivo, judged by reduction in total hemolytic complement activity; Pathol. Biol. 25 (1977); cited from earlier work

T1 sequence (P09871 16-688): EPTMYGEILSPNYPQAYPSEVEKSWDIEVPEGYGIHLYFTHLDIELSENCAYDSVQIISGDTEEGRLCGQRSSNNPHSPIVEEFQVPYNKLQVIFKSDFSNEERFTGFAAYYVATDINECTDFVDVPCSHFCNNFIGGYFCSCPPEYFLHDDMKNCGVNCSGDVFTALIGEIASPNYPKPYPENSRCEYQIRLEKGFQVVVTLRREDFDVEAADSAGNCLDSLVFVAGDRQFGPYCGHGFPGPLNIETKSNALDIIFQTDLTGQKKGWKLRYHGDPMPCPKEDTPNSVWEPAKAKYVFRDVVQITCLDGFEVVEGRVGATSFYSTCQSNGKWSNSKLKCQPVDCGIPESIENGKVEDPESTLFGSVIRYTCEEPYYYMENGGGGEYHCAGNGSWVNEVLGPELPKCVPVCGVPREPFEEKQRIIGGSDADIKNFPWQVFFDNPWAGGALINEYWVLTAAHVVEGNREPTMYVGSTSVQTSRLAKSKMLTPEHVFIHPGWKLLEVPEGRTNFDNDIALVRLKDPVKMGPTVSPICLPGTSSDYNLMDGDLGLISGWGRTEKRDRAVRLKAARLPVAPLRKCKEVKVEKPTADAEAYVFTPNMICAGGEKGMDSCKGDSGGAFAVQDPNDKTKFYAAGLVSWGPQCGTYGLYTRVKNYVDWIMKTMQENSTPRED
T1 sequence (P00736 18-705 partner): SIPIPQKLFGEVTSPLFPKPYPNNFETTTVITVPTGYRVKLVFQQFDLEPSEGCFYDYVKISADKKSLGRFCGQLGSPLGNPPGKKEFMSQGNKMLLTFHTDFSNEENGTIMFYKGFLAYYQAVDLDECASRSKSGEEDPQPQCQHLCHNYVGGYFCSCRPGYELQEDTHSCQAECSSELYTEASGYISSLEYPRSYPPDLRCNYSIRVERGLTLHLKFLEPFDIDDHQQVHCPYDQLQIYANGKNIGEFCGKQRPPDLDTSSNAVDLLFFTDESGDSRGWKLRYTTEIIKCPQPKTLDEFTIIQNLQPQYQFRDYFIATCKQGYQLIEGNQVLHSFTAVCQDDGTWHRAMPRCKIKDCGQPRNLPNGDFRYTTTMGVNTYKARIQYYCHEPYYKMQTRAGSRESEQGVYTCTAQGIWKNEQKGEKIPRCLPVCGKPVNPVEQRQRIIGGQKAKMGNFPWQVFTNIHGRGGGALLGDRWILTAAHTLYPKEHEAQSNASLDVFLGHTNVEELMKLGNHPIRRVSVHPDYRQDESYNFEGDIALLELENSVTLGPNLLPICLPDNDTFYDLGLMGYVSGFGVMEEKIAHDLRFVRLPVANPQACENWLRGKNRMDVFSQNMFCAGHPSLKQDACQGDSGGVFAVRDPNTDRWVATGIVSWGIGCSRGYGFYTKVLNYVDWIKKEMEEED
T1 sequence (P02745 23-245 partner): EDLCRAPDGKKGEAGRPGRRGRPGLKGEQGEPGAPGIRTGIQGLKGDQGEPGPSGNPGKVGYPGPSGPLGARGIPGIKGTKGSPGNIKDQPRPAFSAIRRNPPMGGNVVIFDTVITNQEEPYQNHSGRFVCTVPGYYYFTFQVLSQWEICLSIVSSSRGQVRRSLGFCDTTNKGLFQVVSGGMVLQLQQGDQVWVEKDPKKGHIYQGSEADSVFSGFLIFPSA
T1 sequence (P02746 28-253 partner): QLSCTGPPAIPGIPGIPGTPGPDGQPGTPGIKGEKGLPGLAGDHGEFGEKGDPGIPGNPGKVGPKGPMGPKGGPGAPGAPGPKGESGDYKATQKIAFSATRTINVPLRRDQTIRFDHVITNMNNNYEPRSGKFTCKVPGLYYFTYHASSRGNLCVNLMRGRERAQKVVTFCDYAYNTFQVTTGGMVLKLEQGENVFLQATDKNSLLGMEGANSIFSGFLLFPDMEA
T1 sequence (P02747 29-245 partner): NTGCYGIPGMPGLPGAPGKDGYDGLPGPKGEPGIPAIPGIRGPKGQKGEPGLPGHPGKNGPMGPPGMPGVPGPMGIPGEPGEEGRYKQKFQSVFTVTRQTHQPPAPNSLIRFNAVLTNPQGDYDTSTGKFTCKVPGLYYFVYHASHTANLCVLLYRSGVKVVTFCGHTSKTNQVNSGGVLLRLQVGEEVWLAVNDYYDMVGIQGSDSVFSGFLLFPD

Row | Compound | C-1 026 Wells (activated human C1) [Wells] | C-Late 035 Wells [1] [Wells] | also measured
1 | O=C(Nc1ccc(S[C@@H]2O[C@H](COS(=O)(=O)O)[C@@H](O[C@H]3O[C@H](COS(=O)(=O)O)[C@@H](OS(=O)(=O)O)[C@H](OS(=O)(=O)O)[C@H]3OS(=O)(=O)O)[C@H](OS(=O)(=O)O)[C@H]2OS(=O)(=O)O)cc1)c1cc(C(=O)Nc2ccc(S[C@@H]3O[C@H](COS(=O)(=O)O)[C@@H](O[C@H]4O[C@H](COS(=O)(=O)O)[C@@H](OS(=O)(=O)O)[C@H](OS(=O)(=O)O)[C@H]4OS(=O)(=O)O)[C@H](OS(=O)(=O)O)[C@H]3OS(=O)(=O)O)cc2)cc(C(=O)Nc2ccc(S[C@@H]3O[C@H](COS(=O)(=O)O)[C@@H](O[C@H]4O[C@H](COS(=O)(=O)O)[C@@H](OS(=O)(=O)O)[C@H](OS(=O)(=O)O)[C@H]4OS(=O)(=O)O)[C@H](OS(=O)(=O)O)[C@H]3OS(=O)(=O)O)cc2)c1.[Na].[Na].[Na].[Na].[Na].[Na].[Na].[Na].[Na].[Na].[Na].[Na].[Na].[Na].[Na].[Na].[Na].[Na].[Na].[Na].[Na] [Heneicosasodium N,N',N"-tris[4-[[2,3,6-tri-O-sulfo-4-O-(2,3,4,6-tetra-O-sulfo-α-D-glucopyranosyl)-β-D-glucopyranosyl]thio]phenyl]-1,3,5-benzenetricarboxamide] | 8 | 2 | –
2 | O=S(=O)(O)OC[C@H]1O[C@@H](Sc2ccc(NS(=O)(=O)c3cc(S(=O)(=O)Nc4ccc(S[C@@H]5O[C@H](COS(=O)(=O)O)[C@@H](O[C@H]6O[C@H](COS(=O)(=O)O)[C@@H](OS(=O)(=O)O)[C@H](OS(=O)(=O)O)[C@H]6OS(=O)(=O)O)[C@H](OS(=O)(=O)O)[C@H]5OS(=O)(=O)O)cc4)cc(S(=O)(=O)Nc4ccc(S[C@@H]5O[C@H](COS(=O)(=O)O)[C@@H](O[C@H]6O[C@H](COS(=O)(=O)O)[C@@H](OS(=O)(=O)O)[C@H](OS(=O)(=O)O)[C@H]6OS(=O)(=O)O)[C@H](OS(=O)(=O)O)[C@H]5OS(=O)(=O)O)cc4)c3)cc2)[C@H](OS(=O)(=O)O)[C@@H](OS(=O)(=O)O)[C@@H]1O[C@H]1O[C@H](COS(=O)(=O)O)[C@@H](OS(=O)(=O)O)[C@H](OS(=O)(=O)O)[C@H]1OS(=O)(=O)O.[Na].[Na].[Na].[Na].[Na].[Na].[Na].[Na].[Na].[Na].[Na].[Na].[Na].[Na].[Na].[Na].[Na].[Na].[Na].[Na].[Na] [Heneicosasodium N,N',N"-tris[4-[[2,3,6-tri-O-sulfo-4-O-(2,3,4,6-tetra-O-sulfo-α-D-glucopyranosyl)-β-D-glucopyranosyl]thio]phenyl]-1,3,5-benzenetrisulfonamide] | 9 | 3 | –
3 | O=S(=O)(O)OC[C@H]1O[C@@H](Sc2ccc(NS(=O)(=O)c3cc(S(=O)(=O)Nc4ccc(S[C@@H]5O[C@H](COS(=O)(=O)O)[C@@H](O[C@@H]6O[C@H](COS(=O)(=O)O)[C@@H](OS(=O)(=O)O)[C@H](OS(=O)(=O)O)[C@H]6OS(=O)(=O)O)[C@H](OS(=O)(=O)O)[C@H]5OS(=O)(=O)O)cc4)cc(S(=O)(=O)Nc4ccc(S[C@@H]5O[C@H](COS(=O)(=O)O)[C@@H](O[C@@H]6O[C@H](COS(=O)(=O)O)[C@@H](OS(=O)(=O)O)[C@H](OS(=O)(=O)O)[C@H]6OS(=O)(=O)O)[C@H](OS(=O)(=O)O)[C@H]5OS(=O)(=O)O)cc4)c3)cc2)[C@H](OS(=O)(=O)O)[C@@H](OS(=O)(=O)O)[C@@H]1O[C@@H]1O[C@H](COS(=O)(=O)O)[C@@H](OS(=O)(=O)O)[C@H](OS(=O)(=O)O)[C@H]1OS(=O)(=O)O.[Na].[Na].[Na].[Na].[Na].[Na].[Na].[Na].[Na].[Na].[Na].[Na].[Na].[Na].[Na].[Na].[Na].[Na].[Na].[Na].[Na] [Heneicosasodium N,N',N"-tris[4-[[2,3,6-tri-O-sulfo-4-O-(2,3,4,6-tetra-O-sulfo-β-D-glucopyranosyl)-β-D-glucopyranosyl]thio]phenyl]-1,3,5-benzenetrisulfonamide] | 12 | 3 | –
4 | O=C(Nc1ccc(S[C@@H]2O[C@H](COS(=O)(=O)O)[C@@H](O[C@H]3O[C@H](COS(=O)(=O)O)[C@@H](OS(=O)(=O)O)[C@H](OS(=O)(=O)O)[C@H]3OS(=O)(=O)O)[C@H](OS(=O)(=O)O)[C@H]2OS(=O)(=O)O)cc1)c1ccc(C(=O)Nc2ccc(S[C@@H]3O[C@H](COS(=O)(=O)O)[C@@H](O[C@H]4O[C@H](COS(=O)(=O)O)[C@@H](OS(=O)(=O)O)[C@H](OS(=O)(=O)O)[C@H]4OS(=O)(=O)O)[C@H](OS(=O)(=O)O)[C@H]3OS(=O)(=O)O)cc2)cc1.[Na].[Na].[Na].[Na].[Na].[Na].[Na].[Na].[Na].[Na].[Na].[Na].[Na].[Na] [Tetradecasodium N,N'-bis[4-[[2,3,6-tri-O-sulfo-4-O-(2,3,4,6-tetra-O-sulfo-α-D-glucopyranosyl)-β-D-glucopyranosyl]thio]phenyl]-1,4-benzenedicarboxamide] | 9 | 2 | inhibition at 200 mg/kg ([2]; serum complement 2 hours after injection, read-out: In vivo Activity (Guinea Pig % Inhibition) Intraperitoneal, 2 hours): 87%; inhibition at 200 mg/kg ([2]; serum complement 6 hours after injection, read-out: In vivo Activity (Guinea Pig % Inhibition) Intraperitoneal, 6 hours): 90%; inhibition at 200 mg/kg ([2]; serum complement 24 hours after injection, read-out: In vivo Activity (Guinea Pig % Inhibition) Intraperitoneal, 24 hours): 62%
5 | NCCCCCC(=O)O [epsilon-aminocaproic acid] | – | – | treatment of hereditary angioneurotic edema [3]: used with success
6 | NC[C@H]1CC[C@H](C(=O)O)CC1 [tranexamic acid] | – | – | treatment of hereditary angioneurotic edema [3]: used with success
7 | pentosan-polysulfoester | – | – | anticomplementary activity on human serum [4]: anticomplementary activity
